In the experiment the target is MDM2 (Homo sapiens, UniProt Q00987). The experiment in a line: MDM2 binding screen: displacement of fluorescent p53 peptide probe FP53 (fluorescence polarization). Conditions: for fraction fluorescent probe displaced, Screen: initial screen; for fraction fluorescent probe displaced, Screen / fraction fluorescent probe displaced, Replicate: crude macrocycle reactions; for fraction fluorescent probe displaced: 10 µM macrocycle concentration, crude acylated macrocycle (scaffold Mpa-AA1-AA2-AA3 x carboxylic acid), p53-based fluorescent peptide, human MDM2. The method, boiled down: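 Single-point screen: one fluorescence anisotropy reading at 25 °C (485 nm excitation, 535 nm emission) per macrocycle. Crude macrocycle reactions, final 10 µM, were scored for displacing the fluorescent p53 peptide from human MDM2.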

Numbered stars: 1 amine (or outer) side, 2 acyl side, 3 side chain; on linkers, the order of the positions; unused ones are H or OH. Bridge positions count the residues as written; N and C are the ends. Square brackets hold non-standard residues; d marks the D form. Peptide text beside a SMILES is read from it. * marks the point of attachment. ξ: configuration not given here. Pro(4S-NHCO(5-Cl-2-thienyl)) = O=C(N[C@@H]1CN[C@H](C(=O)O)C1)c1ccc(Cl)s1; ξPro(4ξ-NHCOC6H4-4-Cl) = O=C(NC1CNC(C(=O)O)C1)c1ccc(Cl)cc1; 2Thenoyl(5-Cl) = O=C(c1ccc(Cl)s1)*; Benzoyl(4-Cl) = O=C(c1ccc(Cl)cc1)*; Pyrazinecarbonyl = O=C(c1cnccn1)*; Cysteamide = C(CS[*:3])N[*:1]; X1 = O=C(/C=C/c1ccccc1)*; Api = NC1(C(=O)O)CCNCC1; Dap = NC[C@H](N)C(=O)O; Bz = O=C(c1ccccc1)*; Mpa = O=C(O)CCS

Sequence of MDM2 (Q00987 whole entry, the tested form may be a part): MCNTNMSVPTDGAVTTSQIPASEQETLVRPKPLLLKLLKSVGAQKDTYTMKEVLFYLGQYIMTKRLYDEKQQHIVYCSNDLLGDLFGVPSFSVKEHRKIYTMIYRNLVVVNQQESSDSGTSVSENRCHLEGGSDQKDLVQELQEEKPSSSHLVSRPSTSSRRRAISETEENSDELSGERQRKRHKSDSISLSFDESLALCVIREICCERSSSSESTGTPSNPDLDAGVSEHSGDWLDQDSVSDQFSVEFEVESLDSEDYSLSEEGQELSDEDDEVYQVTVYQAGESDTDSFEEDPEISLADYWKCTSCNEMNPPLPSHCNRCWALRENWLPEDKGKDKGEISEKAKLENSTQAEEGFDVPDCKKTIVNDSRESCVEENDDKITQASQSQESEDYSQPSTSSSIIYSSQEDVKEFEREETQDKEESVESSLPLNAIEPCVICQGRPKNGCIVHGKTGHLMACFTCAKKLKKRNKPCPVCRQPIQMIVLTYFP

With `O=C1CCSSCCNC(=O)C2CN(C(=O)C=Cc3ccccc3)CCN2C(=O)c2cccc(c2)CNC(=O)C(Cc2c[nH]c3ccccc23)N1` (centres unmarked) [X W B5 D7 Acid 91], where the note is “Acid 91”, the “fraction fluorescent probe displaced, Screen” value is reported as 0.16 and the “fraction fluorescent probe displaced, Replicate” value was 0.0168.

In the case of `O=C1CCSSCCNC(=O)[C@@H]2CCCN2C(=O)[C@H](CNC(=O)c2ccc(Cl)s2)NC(=O)[C@H](Cc2c[nH]c3ccccc23)N1` [X W D3 B1 Acid 14] ([Mpa]W[Dap](2Thenoyl(5-Cl))P-Cysteamide; disulfide 1-C), where the note is “Acid 14”, the “fraction fluorescent probe displaced, Screen” value worked out at 0.28 and the “fraction fluorescent probe displaced, Replicate” value was 0.28.

With `O=C1CCSSCCNC(=O)[C@@H]2CCCN2C(=O)[C@H](CNC(=O)c2ccc(Cl)cc2)NC(=O)[C@H](Cc2c[nH]c3ccccc23)N1` [X W D3 B1 Acid 25] ([Mpa]W[Dap](Benzoyl(4-Cl))P-Cysteamide; disulfide 1-C), where the note is “Acid 25”, the “fraction fluorescent probe displaced, Screen” value amounted to 0.32 and the “fraction fluorescent probe displaced, Replicate” value is listed as 0.30.

For the molecule `O=C(/C=C/c1ccccc1)NC[C@@H]1NC(=O)[C@H](Cc2c[nH]c3ccccc23)NC(=O)CCSSCCNC(=O)[C@@H]2CCCN2C1=O` [X W D3 B1 Acid 91] ([Mpa]W[Dap](X1)P-Cysteamide; disulfide 1-C), where the note is “Acid 91”, the “fraction fluorescent probe displaced, Screen” value was determined as 0.11 and the “fraction fluorescent probe displaced, Replicate” value is on record as -0.00827.

Consider `O=C(/C=C/c1ccccc1)NC[C@@H]1NC(=O)[C@H](Cc2c[nH]c3ccccc23)NC(=O)CCSSCCNC(=O)CCNC1=O` [X W D3 B2 Acid 91], for which, for the setting “Acid 91”, the “fraction fluorescent probe displaced, Screen” value amounted to 0.08 and the “fraction fluorescent probe displaced, Replicate” value came out at 0.04.

As for `O=C1CCSSCCNC(=O)[C@H]2CCCN(C2)C(=O)[C@H](CNC(=O)c2ccc(Cl)cc2)NC(=O)[C@H](Cc2c[nH]c3ccccc23)N1` [X W D3 B4 Acid 25], for the setting “Acid 25”, the “fraction fluorescent probe displaced, Screen” value is recorded as 0.28 and the “fraction fluorescent probe displaced, Replicate” value is 0.12.

For `O=C(/C=C/c1ccccc1)NC[C@@H]1NC(=O)[C@H](Cc2c[nH]c3ccccc23)NC(=O)CCSSCCNC(=O)[C@H]2CCCN(C2)C1=O` [X W D3 B4 Acid 91], for the setting “Acid 91”, the “fraction fluorescent probe displaced, Screen” value stood at 0.35 and the “fraction fluorescent probe displaced, Replicate” value worked out at 0.07.

Take `O=C1CCSSCCNC(=O)c2cccc(c2)CNC(=O)[C@H](CNC(=O)c2ccc(Cl)s2)NC(=O)[C@H](Cc2c[nH]c3ccccc23)N1` [X W D3 B5 Acid 14]: for the setting “Acid 14”, the “fraction fluorescent probe displaced, Screen” value turned out to be 0.31 and the “fraction fluorescent probe displaced, Replicate” value came to 0.07.

For the molecule `O=C1CCSSCCNC(=O)c2cccc(c2)CNC(=O)C(CNC(=O)c2ccc(Cl)cc2)NC(=O)C(Cc2c[nH]c3ccccc23)N1` (centres unmarked) [X W D3 B5 Acid 25], for the setting “Acid 25”, the “fraction fluorescent probe displaced, Screen” value amounted to 0.12 and the “fraction fluorescent probe displaced, Replicate” value is 0.17.

As to `O=C(/C=C/c1ccccc1)NC[C@@H]1NC(=O)[C@H](Cc2c[nH]c3ccccc23)NC(=O)CCSSCCNC(=O)c2cccc(c2)CNC1=O` [X W D3 B5 Acid 91], for the setting “Acid 91”, the “fraction fluorescent probe displaced, Screen” value is reported as 0.0563 and the “fraction fluorescent probe displaced, Replicate” value stood at 0.17.

As for `O=C1CCSSCCNC(=O)[C@@H]2CCCN2C(=O)[C@@H]2C[C@H](NC(=O)c3ccc(Cl)s3)CN2C(=O)[C@H](Cc2c[nH]c3ccccc23)N1` [X W D5 B1 Acid 14] ([Mpa]W[Pro(4S-NHCO(5-Cl-2-thienyl))]P-Cysteamide; disulfide 1-C), for the setting “Acid 14”, the “fraction fluorescent probe displaced, Screen” value is 0.28 and the “fraction fluorescent probe displaced, Replicate” value was 0.22.

Take `O=C1CCSSCCNC(=O)C2CCCN2C(=O)C2CC(NC(=O)c3ccc(Cl)cc3)CN2C(=O)C(Cc2c[nH]c3ccccc23)N1` (centres unmarked) [X W D5 B1 Acid 25] ([Mpa]W[ξPro(4ξ-NHCOC6H4-4-Cl)]P-Cysteamide; disulfide 1-C; configuration not given here): under “Acid 25”, the “fraction fluorescent probe displaced, Screen” value stood at 0.22 and the “fraction fluorescent probe displaced, Replicate” value is reported as 0.28.

As to `O=C(C=Cc1ccccc1)NC1CC2C(=O)N3CCCC3C(=O)NCCSSCCC(=O)NC(Cc3c[nH]c4ccccc34)C(=O)N2C1` (centres unmarked) [X W D5 B1 Acid 91], where the note is “Acid 91”, the “fraction fluorescent probe displaced, Screen” value is recorded as 0.08 and the “fraction fluorescent probe displaced, Replicate” value is 0.07.

For the molecule `O=C1CCSSCCNC(=O)C2CCCN(C2)C(=O)C2CC(NC(=O)c3ccc(Cl)cc3)CN2C(=O)C(Cc2c[nH]c3ccccc23)N1` (centres unmarked) [X W D5 B4 Acid 25], where the note is “Acid 25”, the “fraction fluorescent probe displaced, Screen” value is listed as 0.22 and the “fraction fluorescent probe displaced, Replicate” value is on record as 0.15.

With `O=C(C=Cc1ccccc1)NC1CC2C(=O)N3CCCC(C3)C(=O)NCCSSCCC(=O)NC(Cc3c[nH]c4ccccc34)C(=O)N2C1` (centres unmarked) [X W D5 B4 Acid 91], for the setting “Acid 91”, the “fraction fluorescent probe displaced, Screen” value was 0.16 and the “fraction fluorescent probe displaced, Replicate” value is 0.09.

Regarding `O=C1CCSSCCNC(=O)[C@@H]2CCCN2C(=O)C2(CCN(C(=O)c3ccc(Cl)s3)CC2)NC(=O)[C@H](Cc2c[nH]c3ccccc23)N1` [X W D6 B1 Acid 14] ([Mpa]W[Api](2Thenoyl(5-Cl))P-Cysteamide; disulfide 1-C), for the setting “Acid 14”, the “fraction fluorescent probe displaced, Screen” value came out at 0.14 and the “fraction fluorescent probe displaced, Replicate” value amounted to 0.17.

With `O=C1CCSSCCNC(=O)[C@@H]2CCCN2C(=O)C2(CCN(C(=O)c3ccc(Cl)cc3)CC2)NC(=O)[C@H](Cc2c[nH]c3ccccc23)N1` [X W D6 B1 Acid 25] ([Mpa]W[Api](Benzoyl(4-Cl))P-Cysteamide; disulfide 1-C), under “Acid 25”, the “fraction fluorescent probe displaced, Screen” value is recorded as 0.28 and the “fraction fluorescent probe displaced, Replicate” value is 0.25.

As to `O=C1CCSSCCNC(=O)[C@@H]2CCCN2C(=O)C2(CCN(C(=O)/C=C/c3ccccc3)CC2)NC(=O)[C@H](Cc2c[nH]c3ccccc23)N1` [X W D6 B1 Acid 91] ([Mpa]W[Api](X1)P-Cysteamide; disulfide 1-C), for the setting “Acid 91”, the “fraction fluorescent probe displaced, Screen” value came to 0.14 and the “fraction fluorescent probe displaced, Replicate” value is 0.0168.

For `O=C1CCNC(=O)C2(CCN(C(=O)c3ccc(Cl)cc3)CC2)NC(=O)[C@H](Cc2c[nH]c3ccccc23)NC(=O)CCSSCCN1` [X W D6 B2 Acid 25], under “Acid 25”, the “fraction fluorescent probe displaced, Screen” value is 0.0244 and the “fraction fluorescent probe displaced, Replicate” value was determined as 0.0465.

`O=C1CCNC(=O)C2(CCN(C(=O)C=Cc3ccccc3)CC2)NC(=O)C(Cc2c[nH]c3ccccc23)NC(=O)CCSSCCN1` (centres unmarked) [X W D6 B2 Acid 91]: for the setting “Acid 91”, the “fraction fluorescent probe displaced, Screen” value is 0.32 and the “fraction fluorescent probe displaced, Replicate” value was 0.0168.

As to `O=C1CCSSCCNC(=O)C2CCCN(C2)C(=O)C2(CCN(C(=O)c3ccc(Cl)s3)CC2)NC(=O)C(Cc2c[nH]c3ccccc23)N1` (centres unmarked) [X W D6 B4 Acid 14], for the setting “Acid 14”, the “fraction fluorescent probe displaced, Screen” value was found to be 0.11 and the “fraction fluorescent probe displaced, Replicate” value was found to be 0.38.

For the molecule `O=C1CCSSCCNC(=O)C2CCCN(C2)C(=O)C2(CCN(C(=O)c3ccc(Cl)cc3)CC2)NC(=O)C(Cc2c[nH]c3ccccc23)N1` (centres unmarked) [X W D6 B4 Acid 25], under “Acid 25”, the “fraction fluorescent probe displaced, Screen” value was found to be 0.28 and the “fraction fluorescent probe displaced, Replicate” value was 0.20.

On to `O=C1CCSSCCNC(=O)[C@H]2CCCN(C2)C(=O)C2(CCN(C(=O)/C=C/c3ccccc3)CC2)NC(=O)[C@H](Cc2c[nH]c3ccccc23)N1` [X W D6 B4 Acid 91], for which, under “Acid 91”, the “fraction fluorescent probe displaced, Screen” value was 0.11 and the “fraction fluorescent probe displaced, Replicate” value worked out at 0.09.

Regarding `O=C1CCSSCCNC(=O)c2cccc(c2)CNC(=O)C2(CCN(C(=O)c3ccc(Cl)s3)CC2)NC(=O)[C@H](Cc2c[nH]c3ccccc23)N1` [X W D6 B5 Acid 14], where the note is “Acid 14”, the “fraction fluorescent probe displaced, Screen” value amounted to 0.14 and the “fraction fluorescent probe displaced, Replicate” value was found to be 0.22.

As for `O=C1CCSSCCNC(=O)c2cccc(c2)CNC(=O)C2(CCN(C(=O)c3ccc(Cl)cc3)CC2)NC(=O)C(Cc2c[nH]c3ccccc23)N1` (centres unmarked) [X W D6 B5 Acid 25], under “Acid 25”, the “fraction fluorescent probe displaced, Screen” value is given as 0.15 and the “fraction fluorescent probe displaced, Replicate” value is 0.12.

`O=C1CCSSCCNC(=O)c2cccc(c2)CNC(=O)C2(CCN(C(=O)/C=C/c3ccccc3)CC2)NC(=O)[C@H](Cc2c[nH]c3ccccc23)N1` [X W D6 B5 Acid 91]: for the setting “Acid 91”, the “fraction fluorescent probe displaced, Screen” value is 0.40 and the “fraction fluorescent probe displaced, Replicate” value was 0.34.

Take `O=C1CCNC(=O)C2CN(C(=O)c3ccc(Cl)s3)CCN2C(=O)C(Cc2c[nH]c3ccccc23)NC(=O)CCSSCCN1` (centres unmarked) [X W D7 B2 Acid 14]: where the note is “Acid 14”, the “fraction fluorescent probe displaced, Screen” value turned out to be 0.26 and the “fraction fluorescent probe displaced, Replicate” value amounted to 0.10.

Take `O=C1CCNC(=O)C2CN(C(=O)c3ccc(Cl)cc3)CCN2C(=O)C(Cc2c[nH]c3ccccc23)NC(=O)CCSSCCN1` (centres unmarked) [X W D7 B2 Acid 25]: under “Acid 25”, the “fraction fluorescent probe displaced, Screen” value stood at 0.19 and the “fraction fluorescent probe displaced, Replicate” value is listed as 0.07.

For `O=C1CCSSCCNC(=O)C2CCCN(C2)C(=O)C2CN(C(=O)c3ccc(Cl)cc3)CCN2C(=O)C(Cc2c[nH]c3ccccc23)N1` (centres unmarked) [X W D7 B4 Acid 25], where the note is “Acid 25”, the “fraction fluorescent probe displaced, Screen” value came to 0.15 and the “fraction fluorescent probe displaced, Replicate” value worked out at 0.07.

Consider `O=C1CCSSCCNC(=O)c2cccc(c2)CNC(=O)C2CN(C(=O)c3ccc(Cl)cc3)CCN2C(=O)[C@H](Cc2c[nH]c3ccccc23)N1` (some centres unmarked) [X W D7 B5 Acid 25], for which, for the setting “Acid 25”, the “fraction fluorescent probe displaced, Screen” value is reported as 0.12 and the “fraction fluorescent probe displaced, Replicate” value was 0.10.

With `O=C(NC[C@@H]1NC(=O)[C@@H]2CCCN2C(=O)CCSSCCNC(=O)[C@H](Cc2ccccc2)NC1=O)c1ccccc1` [X-B1-D3-F + A1] ([Mpa]P[Dap](Bz)F-Cysteamide; disulfide 1-C), the “fraction fluorescent probe displaced” value is given as -0.005048.

Regarding `O=C(NC[C@@H]1NC(=O)[C@@H]2CCCN2C(=O)CCSSCCNC(=O)[C@H](Cc2ccccc2)NC1=O)c1cnccn1` [X-B1-D3-F + A2] ([Mpa]P[Dap](Pyrazinecarbonyl)F-Cysteamide; disulfide 1-C), the “fraction fluorescent probe displaced” value stood at 0.08617.
